#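 Values below derive from 48-hour exposures of cells grown in 96-well plates, with endpoints linearly interpolated between the two concentrations bracketing the appropriate inhibition level. GI50 marks 50% less growth. TGI: concentration producing complete growth inhibition.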
# Tests used:
# Assay in all cases: NCI anticancer screen, dose series, 48 h
# [1] = tested on: 786-0 renal
# [2] = tested on: A498 renal
# [3] = tested on: A549 NSCLC
# [4] = tested on: ACHN renal
# [5] = tested on: BT-549 breast
# [6] = tested on: CAKI-1 renal
# [7] = tested on: CCRF-CEM leukemia
# [8] = tested on: COLO 205 colon
# [9] = tested on: DU-145 prostate
# [10] = tested on: EKVX NSCLC
# [11] = tested on: HCT-116 colon
# [12] = tested on: HCT-15 colon
# [13] = tested on: HL-60(TB) leukemia
# [14] = tested on: HOP-62 NSCLC
# [15] = tested on: HOP-92 NSCLC
# [16] = tested on: HS 578T breast
# [17] = tested on: HT29 colon
# [18] = tested on: IGROV1 ovarian
# [19] = tested on: K-562 leukemia
# [20] = tested on: KM12 colon
# [21] = tested on: LOX IMVI melanoma
# [22] = tested on: M14 melanoma
# [23] = tested on: MALME-3M melanoma
# [24] = tested on: MCF7 breast
# [25] = tested on: MDA-MB-231 breast
# [26] = tested on: MDA-MB-435
# [27] = tested on: MOLT-4 leukemia
# [28] = tested on: NCI-H226 lung
# [29] = tested on: NCI-H23 lung
# [30] = tested on: NCI-H460 lung
# [31] = tested on: NCI-H522 lung
# [32] = tested on: NCI/ADR-RES ovarian
# [33] = tested on: OVCAR-3 ovarian
# [34] = tested on: OVCAR-4 ovarian
# [35] = tested on: OVCAR-5 ovarian
# [36] = tested on: OVCAR-8 ovarian
# [37] = tested on: PC-3 prostate
# [38] = tested on: RPMI-8226 leukemia
# [39] = tested on: SF-268 CNS
# [40] = tested on: SF-295 CNS
# [41] = tested on: SF-539 CNS
# [42] = tested on: SK-MEL-2 melanoma
# [43] = tested on: SK-MEL-28 melanoma
# [44] = tested on: SK-MEL-5 melanoma
# [45] = tested on: SK-OV-3 ovarian
# [46] = tested on: SN12C renal
# [47] = tested on: SNB-19 CNS
# [48] = tested on: SNB-75 CNS
# [49] = tested on: SR leukemia
# [50] = tested on: SW-620 colon
# [51] = tested on: T-47D breast
# [52] = tested on: TK-10 renal
# [53] = tested on: U251 CNS
# [54] = tested on: UACC-257 melanoma
# [55] = tested on: UACC-62 melanoma
smiles,measurement,setting,value
COc1ccc(N=C2CSc3nnc(-c4cc(F)c(Cl)cc4Cl)n3N2)cc1,GI50,[1],1040 nM
same,TGI,[1],4000 nM
same,GI50,[2],1540 nM
same,TGI,[2],13000 nM
same,GI50,[3],1500 nM
same,TGI,[3],4420 nM
same,GI50,[4],2330 nM
same,TGI,[4],11500 nM
same,GI50,[5],1770 nM
same,TGI,[5],24400 nM
same,GI50,[6],1520 nM
same,TGI,[6],4490 nM
same,GI50,[7],674 nM
same,TGI,[7],> 100000 nM
same,GI50,[8],1810 nM
same,TGI,[8],16000 nM
same,GI50,[9],1470 nM
same,TGI,[9],3870 nM
same,GI50,[10],4840 nM
same,TGI,[10],41700 nM
same,GI50,[11],430 nM
same,TGI,[11],1960 nM
same,GI50,[12],1030 nM
same,TGI,[12],17200 nM
same,GI50,[13],331 nM
same,TGI,[13],636 nM
same,GI50,[14],458 nM
same,TGI,[14],2770 nM
same,GI50,[15],2830 nM
same,TGI,[15],19100 nM
same,GI50,[16],1500 nM
same,TGI,[16],9000 nM
same,GI50,[17],395 nM
same,TGI,[17],2110 nM
same,GI50,[18],187 nM
same,TGI,[18],595 nM
same,GI50,[19],515 nM
same,TGI,[19],18100 nM
same,GI50,[20],469 nM
same,TGI,[20],3450 nM
same,GI50,[21],897 nM
same,TGI,[21],11100 nM
same,GI50,[22],572 nM
same,TGI,[22],8270 nM
same,GI50,[23],529 nM
same,TGI,[23],3770 nM
same,GI50,[24],464 nM
same,TGI,[24],19800 nM
same,GI50,[25],1410 nM
same,TGI,[25],12800 nM
same,GI50,[26],208 nM
same,TGI,[26],785 nM
same,GI50,[27],486 nM
same,TGI,[27],14900 nM
same,GI50,[28],3840 nM
same,TGI,[28],38200 nM
same,GI50,[29],2240 nM
same,TGI,[29],15900 nM
same,GI50,[30],1070 nM
same,TGI,[30],12300 nM
same,GI50,[31],296 nM
same,TGI,[31],885 nM
same,GI50,[32],2960 nM
same,TGI,[32],> 100000 nM
same,GI50,[33],466 nM
same,TGI,[33],2020 nM
same,GI50,[34],1820 nM
same,TGI,[34],7040 nM
same,GI50,[35],1900 nM
same,TGI,[35],4570 nM
same,GI50,[36],2330 nM
same,TGI,[36],10700 nM
same,GI50,[37],1170 nM
same,TGI,[37],13900 nM
same,GI50,[38],1410 nM
same,TGI,[38],11000 nM
same,GI50,[39],1690 nM
same,TGI,[39],21700 nM
same,GI50,[40],347 nM
same,TGI,[40],2080 nM
same,GI50,[41],1050 nM
same,TGI,[41],2630 nM
same,GI50,[42],2750 nM
same,TGI,[42],13400 nM
same,GI50,[43],2380 nM
same,TGI,[43],21400 nM
same,GI50,[44],1280 nM
same,TGI,[44],11100 nM
same,GI50,[45],987 nM
same,TGI,[45],5390 nM
same,GI50,[46],2610 nM
same,TGI,[46],14400 nM
same,GI50,[47],776 nM
same,TGI,[47],18900 nM
same,GI50,[48],355 nM
same,TGI,[48],1580 nM
same,GI50,[49],330 nM
same,TGI,[49],799 nM
same,GI50,[50],553 nM
same,TGI,[50],13100 nM
same,GI50,[51],4030 nM
same,TGI,[51],32700 nM
same,GI50,[52],1400 nM
same,TGI,[52],4060 nM
same,GI50,[53],497 nM
same,TGI,[53],10800 nM
same,GI50,[54],1380 nM
same,TGI,[54],4160 nM
same,GI50,[55],576 nM
same,TGI,[55],23200 nM

# Source: PubChem BioAssay (NCI)
